Patent publication US20210293825A1, “METHODS FOR PRECISION THERAPEUTIC TARGETING OF HUMAN CANCER CELL MOTILITY AND KITS THEREOF” (UNITED STATES GOVERNMENT AS REPRESENTED BY THE DEPARTMENT …, priority 2018, published 2021)

Experiments:
[1] = tested on: protein phosphorylation in PC3-M and PC3 cells; experiment: KinomeView phospho-motif antibody screen; assay type: cell-based, human; conditions: 10 μM, 3 days, ±TGFβ
Text: Seeking to identify KBU2046's biological target(s), alternative methods were pursued. The KinomeView® panel of antibodies (Cell Signaling Technology, Inc.) detect established protein phosphorylation motifs, and were used to probe for KBU2046-induced changes in protein phosphorylation (FIG. 4a and FIG. 17). Phosphoprotein changes that met the following criteria were prioritized: were induced in cells in vitro as well as in tumors of treated mice (from FIG. 2a), that counteracted transforming growth factor β (TGFβ)-induced effects, and that were reproducible. TGFβ is ubiquitous in vivo, is known to increase PCa cell invasion (Huang, X. et al., Cancer Research 65, 3470-8 (2005)), and KBU2046's anti-invasion efficacy remains in spite of TGFβ-stimulated increases in cell invasion (FIG. 18). Genistein was evaluated under identical treatment conditions for comparison. […] In tumors of treated animals KBU2046 had this same effect on this 83 kDa protein band (green arrow in FIG. 17a). The high molecular selectivity of KBU2046 was further supported by its failure to inhibit over 400 different protein kinases and 20 phosphatases examined, in three different in vitro assay systems (see, Example 1).
Phospho-proteomic Analysis. The Kinoview™ and PhosphoScan™ assays were performed by Cell Signaling Technology Inc. […]

[2] = molecular target: T1, phosphorylation of HSP90β (Homo sapiens, UniProt P08238+Q16543); experiment: HSP90β/CDC37 heterocomplex in vitro kinase assay with SGK3 and MAP3K6; assay type: biochemical
T1 construct: MAP3K6: Abnova SGK3: #PV3859; MAP3K6: #P5592; host or cells: E. coli for HSP90β and CDC37
Description: HEK293T cells were transfected with 1 of 420 different protein kinases, treated with 10 μM KBU2046 (N=5 replicates) or vehicle control (N=5) for three days, and LUMIER assays performed. The N=17 kinases that gave significant findings (Student's t-test <0.05) in the same direction in each of two separate experiments are depicted. Each separate treatment and kinase condition in each of two separate experiments was conducted in replicates of N=5. […] FIGS. 6c and 6d show the results of the wound healing assay. PC3 cells were transfected with siRNA targeting RAF1 (si-Raf1) or non-targeting siRNA (si-control), treated with KBU2046 or vehicle as above, and RAF1 protein measured by Western blot (c) and effects upon wound healing measured (d). […] Purified recombinant HSP90β, CDC37, and RAF1 were combined with KBU2046, as indicated, incubated in an in vitro kinase assay for the indicated times, and Western blot for RAF1-Ser^338 phosphorylation performed. FIGS. 6f and 6g show the effect on HSP90β/CDC37 heterocomplex formation and function in vitro. Purified recombinant HSP90β, CDC37, RAF1, SGK3 or MAP3K6 were combined and treated with KBU2046 or vehicle control, as indicated, incubated in an in vitro kinase assay for the indicated times, and Western blot performed, as denoted. Experiments were repeated at separate times at least once, with similar results. […]

[3] = tested on: human breast cancer LM2-4H2N cells; experiment: Breast cancer orthotopic implantation / resection survival model; assay type: in vivo, SCID-Beige mice; conditions: post-surgery adjuvant, 25 mg/kg daily oral gavage five times/week
Description: Cohorts of N=12 athymic mice bearing human PCa PC3-M cell orthotopic implants (a), or of N=5 non-tumor bearing athymic mice (b), were treated with KBU2046 incorporated into chow, and resultant lung metastasis (a) or plasma KBU2046 concentration (b) measured. Values are the mean±SEM. The relationship between dose and metastasis was evaluated by two-sided ANOVA (a). FIG. 2c a comprehensive characterization of KBU2046 pharmacokinetics. CD1 mice were dosed with 100 mg KBU2046/kg via oral gavage or intravenous injection (iv), and blood collected at the indicated time points (data from mice dosed at 25 mg/kg are in FIG. 12, and corroborate 100 mg/kg findings). For each route and time point, N=3 mice were sampled. Individual data points are the resultant plasma concentrations from individual mice, and are the mean of N=2 measurements. The dotted horizontal line denotes a concentration of 24 nM, which was the concentration of KBU2046 measured in the blood of mice whose metastasis were suppressed by 92% (a-b). […] Mice were orthotopically implanted with human breast cancer LM2-4H2N cells, the resultant primary tumors resected, and adjuvant treatment begun with KBU2046 by daily oral gavage five times/week. The survival of N=6 mice receiving vehicle was compared to that of N=6 mice receiving 25 mg/kg KBU2046 by the log rank (Mantel-Cox) test.
Breast cancer: orthotopic implantation. […]

T1 sequence (P08238 2-724): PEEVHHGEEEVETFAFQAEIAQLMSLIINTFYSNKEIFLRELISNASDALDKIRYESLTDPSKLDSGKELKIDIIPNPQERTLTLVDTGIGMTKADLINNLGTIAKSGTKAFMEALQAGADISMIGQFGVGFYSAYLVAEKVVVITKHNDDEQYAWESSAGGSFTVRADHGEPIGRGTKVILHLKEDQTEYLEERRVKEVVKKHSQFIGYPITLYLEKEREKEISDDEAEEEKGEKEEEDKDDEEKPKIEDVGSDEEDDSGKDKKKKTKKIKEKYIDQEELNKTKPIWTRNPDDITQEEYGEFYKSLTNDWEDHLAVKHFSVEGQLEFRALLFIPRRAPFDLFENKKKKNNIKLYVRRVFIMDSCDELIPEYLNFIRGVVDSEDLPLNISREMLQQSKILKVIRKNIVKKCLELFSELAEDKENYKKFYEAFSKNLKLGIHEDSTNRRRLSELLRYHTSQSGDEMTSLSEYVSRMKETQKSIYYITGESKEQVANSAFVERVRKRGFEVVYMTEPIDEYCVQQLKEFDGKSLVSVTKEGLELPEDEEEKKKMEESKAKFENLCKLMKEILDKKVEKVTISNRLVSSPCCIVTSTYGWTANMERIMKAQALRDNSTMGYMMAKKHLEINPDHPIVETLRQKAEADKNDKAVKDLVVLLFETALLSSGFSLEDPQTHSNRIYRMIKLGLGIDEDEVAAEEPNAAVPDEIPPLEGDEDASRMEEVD
T1 sequence (Q16543 whole entry): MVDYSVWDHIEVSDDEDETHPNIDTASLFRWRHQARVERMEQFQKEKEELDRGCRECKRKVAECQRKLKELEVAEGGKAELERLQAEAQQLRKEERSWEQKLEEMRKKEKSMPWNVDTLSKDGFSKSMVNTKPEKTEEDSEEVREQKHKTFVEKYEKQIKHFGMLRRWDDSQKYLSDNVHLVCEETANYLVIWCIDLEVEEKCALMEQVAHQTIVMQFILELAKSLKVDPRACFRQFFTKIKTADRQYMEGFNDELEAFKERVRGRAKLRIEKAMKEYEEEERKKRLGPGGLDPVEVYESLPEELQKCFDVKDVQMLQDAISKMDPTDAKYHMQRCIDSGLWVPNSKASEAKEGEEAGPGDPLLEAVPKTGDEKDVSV

For O=C1c2ccccc2OCC1c1ccc(F)cc1 (racemic) [KBU2046, (±)-3(4-fluorophenyl)chroman-4-one], the “changes in protein phosphorylation” value [1] was “induced a single change that met the pre-specified criteria”, the “SGK3-mediated phosphorylation of HSP90β” value ([2]; MAP3K6 added) was “also decreases in the presence of KBU2046” and the “SGK3-mediated phosphorylation of HSP90β” value ([2]; SGK3 present) was “phosphorylation was further increased”. For the same compound, the survival [3] was “significantly prolonged the survival”.
